Assay results as given in article PMC11938014, “Development and Application of Small Molecule–Peptide Conjugates as Cathepsin K-Specific Covalent Irreversible Inhibitors in Human Osteoclast and Lung Cancer” (JACS Au, 2025).
Where two headings read alike, the source gives them in different places.

Assays:
[1] = target: T1, Recombinant human cathepsin K (Homo sapiens, UniProt P43235); test: Recombinant cathepsin inhibition, gel-based competition with GB123 probe; format: biochemical; conditions: for concentration at which significant CTSK inhibition starts: Figure S5, recombinant CTSK
T1 construct: made in house
T1 sequence (P43235 115-329): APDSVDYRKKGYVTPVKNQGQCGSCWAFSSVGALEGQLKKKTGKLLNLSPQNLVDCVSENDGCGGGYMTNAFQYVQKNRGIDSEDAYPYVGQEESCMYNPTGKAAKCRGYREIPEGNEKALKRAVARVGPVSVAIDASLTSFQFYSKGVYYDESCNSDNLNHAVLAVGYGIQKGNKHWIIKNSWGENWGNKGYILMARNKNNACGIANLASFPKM
Method: (§1) In-gel fluorescence analysis was used to detect the residual activity of the cathepsins by applying pan-cathepsin probe GB123 to detect the stable enzyme–probe complex. This approach is used for testing inhibition and selectivity.[37],[41]
(§2) Recombinant human cathepsin L (0.5 μM), cathepsin B (0.5 μM), cathepsin K (0.5 μM), and cathepsin S (0.5 μM) were pretreated with different concentrations of inhibitors (GD compounds, odanacatib) for 1 h in reaction buffer (50 mM acetate, 2 mM dithiothreitol (DTT), and 5 mM MgCl2, pH 5.5) at 37 °C. GB123 (1 μM) was added and incubated with samples for 60 min at 37 °C.[37],[41] The reaction was stopped by the addition of sample buffer 4× (40% glycerol, 0.2 M Tris/HCl pH 6.8, 20% β-mercaptoethanol, 12% SDS, and 0.4 mg/mL bromophenol blue). Samples were then boiled, separated on a 12.5% SDS gel, and scanned for fluorescence by a Typhoon scanner FLA 9500 at excitation and emission wavelengths of 635 and 670 nm for GB123.
(§3) graphs were generated in GraphPad Prism software.

[2] = target: T2, Recombinant human cathepsin L (Homo sapiens, UniProt P07711); test: as above; format: biochemical; conditions: Table S2; three independent competition gel-based experiments; read-out: CTSL (IC50)
T2 construct: made in house
Method: as §1, §2, §3

[3] = target: T3, Recombinant human cathepsin B (Homo sapiens, UniProt P07858); test: as above; format: biochemical; conditions: Table S2; three independent competition gel-based experiments; read-out: CTSB (IC50)
T3 construct: made in house
Method: as §1, §2, §3

[4] = target: T4, endogenous matured CTSK in intact U2-OS and U-87 MG cells (Homo sapiens, UniProt P43235); test: Competition assay in intact cells, GB123 labeling; format: cell-based; conditions: escalating doses
T4 construct: endogenous in cells; host or cells: U2-OS and U-87 MG
T4 sequence (P43235 115-329): T1 sequence (P43235 115-329)
Method: Two cell lines, human osteosarcoma U2-OS and human glioblastoma U-87 MG, that naturally express CTSK along with other lysosomal cathepsins, were chosen to evaluate the inhibitors’ potency and selectivity.[43],[44] First, the intact cells were incubated for various durations with escalating doses of the inhibitors, and the ODN was used as a control. The residual cathepsin activity in the cells was detected by adding a pan-cathepsin ABP, GB123, after which the cells were lysed. The probe-labeled enzymes were then separated and visualized using fluorescent SDS-PAGE (Figures 5a,b and S7).[45] In both cells, the activity of several cathepsins was detected, while the fluorescent band at approximately 25 kDa was correlated to CTSK by immunoblotting (shown below in Figure 5a, b). The identity of each labeled band was detected by immunoblotting (Figure S7).[45] A selective dose-dependent suppression of CTSK activity was obtained in a range of inhibitor concentrations.
Figure 5 Direct inhibition of endogenous matured CTSK in intact U2-OS and U-87 MG cells. (a) Intact U2-OS cells were treated with DMSO, ODN, or increasing concentrations of the inhibitors GD20 or GD38 in their culture medium for 2 h. Cells were then treated with GB123 (5 μM) for 2 h, lysed, and separated by SDS-PAGE, followed by fluorescent scanning of the gel using a Typhoon scanner at 635/670 nm. An immunoblot of CTSK of the same gel is presented below. Different cathepsins are marked by colored arrowheads; a red arrowhead marks mature CTSK. s. ch. = single chain, h. ch. = heavy chain.[45] (b) Intact U-87 MG cells were treated with the inhibitor, followed by GB123, as described in panel (a).
U-87 MG and U2-0S cells (5 × 10^5 cells/well) were seeded in a six-well plate 1 day before treatment. […] Proteins were quantified by bicinchoninic acid (BCA, Thermo Scientific); an equal quantity of proteins was prepared for all samples, and after the addition of sample buffer, the lysates were boiled for 10 min, centrifuged, and separated by 12.5% SDS-PAGE. […]

CTSK = target: T5, CTSK (Homo sapiens, UniProt P43235); test: Kinetic evaluation of recombinant cathepsin inhibition, fluorogenic substrate Z-FR-AMC; format: biochemical; conditions: for Ki: irreversible inhibitors
T5 construct: made in house
T5 sequence (P43235 115-329): T1 sequence (P43235 115-329)
Method: (§4) Cathepsin (0.4 nM, CatK) or 5 nM (CatS, CatB, and CatL) were each mixed with inhibitors before adding the fluorogenic substrate. The proteases were then reacted with their substrates, Z-RR-AMC (CatL) or Z-FR-AMC (CatS, CatB, and CatK), for 30 min at 37 °C in the phosphate buffer (100 mM Na2HPO4/NaH2PO4, 50 mM NaCl, 5 mM DTT, 0.1% PEG-6000, at pH 6). Reactions were done in 96-well black flat-bottom microplates (Greiner, Germany); fluorescence (Ex/Em 370 and 460 nm) was measured by a Tecan INFINITE M1000 pro plate reader (Tecan, Switzerland) in the presence of inhibitors or vehicle. For irreversible inhibitors, reaction data were analyzed by using the one-phase association formula in GraphPad Prism 9 software: Y = Y0 + (plateau – Y0) × (1 – exp(−K × X)), where Y0 and Y denote the fluorescence signals at times 0 and t, respectively, K represents the observed reaction rate kobs, and X signifies the […]. The inactivation rates at each inhibitor concentration were determined by subtracting the inactivation observed in the control sample: kobs – kctrl. The maximum inactivation rate (kinact) was derived as the asymptote from the equation Y = kinact × X/(Ki^app + X), where X represents the inhibitor concentration, Y is the observed inactivation rate for each X, and Ki^app is the apparent inhibition constant. Ki values were derived from IC50 or Ki^app using the equations Ki = Ki^app/(1 + […]) and IC50 = E0/2 + Ki^app, where Km represents the Michaelis–Menten constant, S denotes substrate concentration, and E0 indicates cathepsin concentration. The maximum inhibitor dose in the experiment was 50 μM. Measurements were conducted in multiple independent duplicates. Average values are listed.

CTSS = target: T6, CTSS (Homo sapiens, UniProt P25774); test: as above; format: biochemical
T6 construct: made in house
Method: as §4

[5] = Figure 4b IC50 curves, recombinant CTSK 0.5 μM, read-out: IC50 for inhibiting CTSK activity

T2 sequence (P07711 114-333): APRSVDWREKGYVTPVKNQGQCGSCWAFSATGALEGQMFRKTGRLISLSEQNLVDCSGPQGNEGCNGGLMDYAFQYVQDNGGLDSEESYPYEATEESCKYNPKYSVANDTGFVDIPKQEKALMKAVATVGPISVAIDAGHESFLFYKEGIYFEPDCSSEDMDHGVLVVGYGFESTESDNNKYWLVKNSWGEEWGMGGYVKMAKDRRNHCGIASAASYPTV
T6 sequence (P25774 115-331): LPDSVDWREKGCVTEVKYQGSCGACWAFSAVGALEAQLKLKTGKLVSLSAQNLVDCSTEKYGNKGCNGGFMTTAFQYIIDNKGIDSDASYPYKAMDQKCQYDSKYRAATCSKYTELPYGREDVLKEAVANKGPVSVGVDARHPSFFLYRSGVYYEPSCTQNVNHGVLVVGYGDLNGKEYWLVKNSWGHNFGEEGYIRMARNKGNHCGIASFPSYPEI

| IC50 [1, 5] | concentration at which significant CTSK inhibition starts [1] | IC50 [2] | IC50 [3] | kinact (CTSK) | kinact/KI (CTSK) | type of inhibition, CTSK (CTSK) | Ki (CTSK) | Ki (CTSS; maximum inhibitor dose 50 μM) | IC50 ([1]; Table S2, three independent competition gel-based experiments, read-out: CTSK (IC50)) | kinact (CTSS) | kinact/KI (CTSS) | type of inhibition, CTSS (CTSS) | Ki (CTSS; irreversible inhibitor) | IC50 ([1]; Table S2, value in nM, read-out: CTSK (IC50)) | IC50 (CTSK; reversible (tight binding)) | Ki (CTSS; reversible) | Compound | inhibition of CTSK and selectivity over other cathepsins in intact cells, in words [4] |
| --- | --- | --- | --- | --- | --- | --- | --- | --- | --- | --- | --- | --- | --- | --- | --- | --- | --- | --- |
| 460 ± 77 nM | 0.25 µM | > 10000 nM | > 10000 nM | 0.0026 s⁻¹ | 232000 M⁻¹ s⁻¹ | irreversible | 13 nM | > 50000 nM | – | – | – | – | – | – | – | – | CC(C)C[C@H](N[C@@H](c1ccc(-c2ccc(S(C)(=O)=O)cc2)cc1)C(F)(F)F)C(=O)NCC(=O)COC(=O)[C@@H]1CCCN1C(=O)[C@H](CC(C)C)NC(=O)OCC1c2ccccc2-c2ccccc21 [GD20] | very selective at all concentrations tested |
| 210 ± 27 nM | 0.062 µM | > 10000 nM | > 10000 nM | 0.0032 s⁻¹ | 230000 M⁻¹ s⁻¹ | irreversible | 20.9 nM | – | 200 ± 20 nM | 0.009 s⁻¹ | 178 M⁻¹ s⁻¹ | irreversible | 62000 nM | – | – | – | CC(C)C[C@H](N[C@@H](c1ccc(-c2ccc(S(C)(=O)=O)cc2)cc1)C(F)(F)F)C(=O)NCC(=O)COC(=O)[C@@H]1CCCN1C(=O)[C@H](CCC(N)=O)NC(=O)OCC1c2ccccc2-c2ccccc21 [GD38] | slightly reduced the activity of other cathepsins at high concentrations and longer incubation times |
| – | – | > 10000 nM | > 10000 nM | – | – | reversible (tight binding) | – | – | – | – | – | reversible | – | 350 ± 0.05 nM | 0.942 nM | 136 nM | CC(C)(F)C[C@H](N[C@@H](c1ccc(-c2ccc(S(C)(=O)=O)cc2)cc1)C(F)(F)F)C(=O)NC1(C#N)CC1 [ODN, odanacatib, reference compound] | could not detect |
